In the NIST ThermoML archive (doi:10.1016/j.tca.2008.12.007):

Settings: 101.33 kPa, Liquid, Vibrating tube method

C1CCCNCC1 [azacycloheptane]
Settings	mass density [kg/m3]
273.16 K	898.81
273.66 K	898.36
274.16 K	897.92
274.66 K	897.48
275.16 K	897.04
275.66 K	896.6
276.16 K	896.16
276.66 K	895.72
277.16 K	895.28
277.66 K	894.84
278.16 K	894.4
278.66 K	893.96
279.16 K	893.51
279.66 K	893.07
280.16 K	892.63
280.66 K	892.19
281.16 K	891.75
281.66 K	891.31
282.16 K	890.87
282.66 K	890.42
283.16 K	889.98
283.66 K	889.54
284.16 K	889.1
284.66 K	888.66
285.15 K	888.22
285.66 K	887.77
286.16 K	887.33
286.66 K	886.89
287.16 K	886.45
287.66 K	886
288.16 K	885.56
288.66 K	885.12
289.16 K	884.68
289.66 K	884.23
290.16 K	883.79
290.66 K	883.35
291.15 K	882.91
291.65 K	882.47
292.16 K	882.03
292.65 K	881.58
293.15 K	881.15
293.65 K	880.71
294.15 K	880.26
294.65 K	879.82
295.15 K	879.38
295.65 K	878.94
319.15 K	858.06
319.65 K	857.61
320.15 K	857.17
320.65 K	856.72
321.15 K	856.28
321.65 K	855.83
322.15 K	855.39
322.65 K	854.94
323.15 K	854.49
323.65 K	854.05
324.15 K	853.6
324.65 K	853.15
325.15 K	852.71
325.66 K	852.26
326.16 K	851.81
326.66 K	851.37
327.15 K	850.92
327.66 K	850.47
328.16 K	850.03
328.66 K	849.58
329.16 K	849.13
329.66 K	848.69
330.16 K	848.24
330.65 K	847.79
331.16 K	847.35
331.66 K	846.9
332.15 K	846.45
332.66 K	846
333.16 K	845.55
333.65 K	845.11
334.16 K	844.66
334.65 K	844.21
335.16 K	843.76
335.65 K	843.31
336.16 K	842.86
336.66 K	842.42
337.16 K	841.96
337.66 K	841.52
338.16 K	841.07
338.66 K	840.62
339.16 K	840.17
339.66 K	839.72
340.16 K	839.27
340.66 K	838.82
341.16 K	838.37
341.65 K	837.92
